Measured values: paper PMC8380238, “Structure-based virtual screening of CYP1A1 inhibitors: towards rapid tier-one assessment of potential developmental toxicants” (Archives of Toxicology, 2021)
Like-named read-outs stand apart in the source and are kept apart here.

What was measured:
[1] = target: T1, human recombinant CYP1A1 (rCYP1A1) (Homo sapiens, UniProt P04798); test: CYP1A1 activity assay: inhibition of CEC metabolism (IC50)
T1 sequence (P04798 1-512): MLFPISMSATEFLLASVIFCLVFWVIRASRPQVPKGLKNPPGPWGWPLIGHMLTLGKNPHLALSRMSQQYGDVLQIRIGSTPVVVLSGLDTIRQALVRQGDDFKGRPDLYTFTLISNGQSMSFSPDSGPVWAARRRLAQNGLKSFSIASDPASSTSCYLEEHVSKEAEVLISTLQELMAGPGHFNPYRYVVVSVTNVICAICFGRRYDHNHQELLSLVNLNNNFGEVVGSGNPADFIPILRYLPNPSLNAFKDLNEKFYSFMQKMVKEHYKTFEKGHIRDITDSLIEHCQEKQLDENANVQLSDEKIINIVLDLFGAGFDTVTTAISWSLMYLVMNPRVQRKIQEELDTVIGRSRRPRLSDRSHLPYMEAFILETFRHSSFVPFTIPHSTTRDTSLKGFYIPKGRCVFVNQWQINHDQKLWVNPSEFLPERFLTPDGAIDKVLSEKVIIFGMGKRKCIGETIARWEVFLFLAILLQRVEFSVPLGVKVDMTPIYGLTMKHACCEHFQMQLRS

[2] = target: T1, human recombinant CYP1A1 (rCYP1A1)
[3] = target: T1, human recombinant CYP1A1 (rCYP1A1); test: CYP1A1 activity assay repeated at six CEC concentrations (Ki, α, mode of inhibition)
CYP1A1 [4] = conditions: cited from earlier work
[5] = target: T1, human recombinant CYP1A1 (rCYP1A1); conditions: recombinant enzyme
human CYP1A1 = conditions: cited from earlier work
CYP1A1 [6] = conditions: cited from earlier work; remark: listed apart in the source
[7] = CYP1A1 IC50 (range of colour key, Fig. 5a)
[8] = CYP1A1 Ki (range of colour key, Fig. 5b)

Structure (SMILES)	IC50 [1, 7]	IC50 ([1]; IC50)	MOI (mode of inhibition) [2]	α (degree to which the binding of inhibitor changes the affinity of the enzyme for substrate) [3]	Ki [3, 8]	Ki ([3]; Ki)	other results
C[C@]12CC[C@@H]3c4ccc(O)cc4CC[C@H]3[C@@H]1[C@@H](O)[C@@H](O)[C@@H]2O [Estetrol]	–	–	–	–	–	–	IC50 ([1]; CYP1A1 IC50 (range of colour key, Fig. 5a), 5 µM CEC, range assigned by colour of the point): 100 to 1000 µM; IC50 ([1]; IC50, 5 µM CEC, maximum tested concentration 200 µM (ketoconazole 20 µM), ∞ = the best fitted model was the constant model): > 200 µM
CC(C)(C#N)c1cc(Cn2cncn2)cc(C(C)(C)C#N)c1 [Anastrozole, reference compound]	100 to 1000 µM	190 µM	–	–	–	–	–
CCCOC(=O)c1ccc(O)cc1 [Propyl paraben]	10 to 100 µM	39 µM	Competitive	6.2	15 to 20 µM	17 µM	–
C[C@]12CC[C@@H]3c4ccc(O)cc4CC[C@H]3[C@@H]1CC[C@@H]2O [Estradiol, reference compound]	10 to 100 µM	43 µM	Competitive	4.3	10 to 15 µM	13 µM	CYP1A1 substrate category (CYP1A1 [4]): strong
O=P1(N(CCCl)CCCl)NCCCO1 (centres unmarked) [Cyclophosphamide, reference compound]	≥ 1000 µM	–	–	–	–	–	IC50 [5]: ∞
CCOC(=O)c1ccccc1C(=O)OCC [Diethyl phthalate]	10 to 100 µM	38 µM	Competitive	–	10 to 15 µM	10 µM	–
O=c1ccc2nc3ccc(OCc4ccccc4)cc3oc-2c1 [BzRes, resorufin benzyl ether]	–	–	–	–	–	–	activity of human CYP1A1 on the fluorometric substrate (human CYP1A1; ref Stresser et al. [2002]): 0.457 pmol/min/pmol CYP1A1
C=CC(=C)CCC=C(C)C [β-Myrcene]	10 to 100 µM	52 µM	Mixed	3.5	10 to 15 µM	11 µM	–
CC(C)(c1ccc(O)cc1)c1ccc(O)cc1 [Bisphenol A]	1 to 10 µM	2.4 µM	Competitive	9.1	–	0.53 µM	–
CCOc1ccc2cc(C#N)c(=O)oc2c1 [CEC, 3-cyano-7-ethoxycoumarin]	–	–	–	–	–	–	activity of human CYP1A1 on the fluorometric substrate (human CYP1A1): 40.2 pmol/min/pmol CYP1A1
CCCCOC(=O)c1ccccc1C(=O)OCCCC [Dibutyl phthalate]	10 to 100 µM	10 µM	Competitive	13	1 to 10 µM	1.6 µM	–
CCCCc1oc2ccccc2c1C(=O)c1cc(I)c(OCCNCC)c(I)c1 [DEA, desethylamiodarone]	–	–	–	–	–	–	Ki (CYP1A1 [6]): 1.5 µM; α (CYP1A1 [6]): 5.7
C[C@]12CC[C@H](O)CC1=CC[C@@H]1[C@@H]2CC[C@]2(C)C(=O)CC[C@@H]12 [DHEA, dehydroepiandrosterone]	100 to 1000 µM	130 µM	–	–	–	–	–
CC(=O)[C@H]1CC[C@H]2[C@@H]3CCC4=CC(=O)CC[C@]4(C)[C@H]3CC[C@]12C [Progesterone, reference compound]	10 to 100 µM	41 µM	Competitive	4.3	15 to 20 µM	20 µM	CYP1A1 substrate category (CYP1A1 [4]): weak
C[C@]12CC[C@@H]3c4ccc(O)cc4CC[C@H]3[C@@H]1C[C@@H](O)[C@@H]2O [Estriol]	≥ 1000 µM	–	–	–	–	–	IC50 [5]: ∞
CC(O)(CS(=O)(=O)c1ccc(F)cc1)C(=O)Nc1ccc(C#N)c(C(F)(F)F)c1 (centres unmarked) [Bicalutamide, reference compound]	10 to 100 µM	14 µM	Mixed	–	1 to 10 µM	6.6 µM	–
C[C@H]1CCCC(=O)CCC/C=C/c2cc(O)cc(O)c2C(=O)O1 [Zearalenone]	–	0.7 µM	Mixed	3.5	–	0.66 µM	–
C[C@]12CC[C@H]3[C@@H](CCC4=CC(=O)CC[C@@]43C)[C@@H]1CC[C@@H]2O [Testosterone]	–	–	–	–	–	–	CYP1A1 substrate category (CYP1A1 [4]): weak
CC(=O)O[C@]1(C(C)=O)CC[C@H]2[C@@H]3C=C(Cl)C4=CC(=O)[C@@H]5C[C@@H]5[C@]4(C)[C@H]3CC[C@@]21C [Cyproterone acetate, reference compound]	1 to 10 µM	9.9 µM	Competitive	7	–	–	Ki ([3]; CYP1A1 Ki (range of colour key, Fig. 5b), range assigned by colour of the point): 1 to 10 µM; Ki ([3]; Ki, CEC 1.56-50.0 µM): 8.8 µM
COc1ccc2[nH]cc(CCNC(C)=O)c2c1 [Melatonin]	–	–	–	–	–	–	CYP1A1 substrate category (CYP1A1 [4]): strong
CC(=O)N1CCN(c2ccc(OCC3COC(Cn4ccnc4)(c4ccc(Cl)cc4Cl)O3)cc2)CC1 (centres unmarked) [Ketoconazole, reference compound]	–	0.099 µM	Noncompetitive	0.68	–	0.11 µM	–
